Results: patent US20150105252A1, “SUBSTITUTED PYRAZOLES AS HERBICIDES” (E I DU PONT DE NEMOURS AND COMPANY, priority 2013, published 2015)

Experiments:
[1] = system: bluegrass; test: Test D preemergence; format: in vivo, Poa annua; conditions: Preemergence, scale 0 to 100
How it was run: (§1)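 Postemergence activity was tested on plants at the 1- to 4-leaf stage (2–18 cm) grown in peat-based medium, and preemergence activity on seeds in silt loam, with chemicals in a surfactant-containing non-phytotoxic solvent. Controlled-environment growth lasted 14–21 days before visual 0–100 scoring.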

[2] = system: chickweed; test: Test D preemergence; format: in vivo, Stellaria media; conditions: Preemergence, scale 0 to 100
How it was run: as §1

[3] = system: galium; test: Test D preemergence; format: in vivo, Galium aparine; conditions: Preemergence, scale 0 to 100
How it was run: as §1

[4] = system: field poppy; test: Test D preemergence; format: in vivo, Papaver rhoeas; conditions: Preemergence, scale 0 to 100
How it was run: as §1

[5] = system: field violet; test: Test D preemergence; format: in vivo, Viola arvensis; conditions: Preemergence, scale 0 to 100
How it was run: as §1

[6] = system: kochia; test: Test D preemergence; format: in vivo, Kochia scoparia; conditions: Preemergence, scale 0 to 100
How it was run: as §1

[7] = system: oilseed rape; test: Test D preemergence; format: in vivo, Brassica napus; conditions: Preemergence, scale 0 to 100
How it was run: as §1

[8] = system: chamomile; test: Test D preemergence; format: in vivo, Matricaria inodora; conditions: Preemergence, scale 0 to 100
How it was run: as §1

[9] = system: speedwell; test: Test D preemergence; format: in vivo, Veronica persica; conditions: Preemergence, scale 0 to 100
How it was run: as §1

[10] = system: wheat, spring; test: Test D preemergence; format: in vivo, Triticum aestivum; conditions: Preemergence, scale 0 to 100
How it was run: as §1

[11] = system: wheat, winter; test: Test D preemergence; format: in vivo, Triticum aestivum; conditions: Preemergence, scale 0 to 100
How it was run: as §1

[12] = system: windgrass; test: Test D preemergence; format: in vivo, Apera spica-venti; conditions: Preemergence, scale 0 to 100
How it was run: as §1

[13] = system: blackgrass; test: Test D postemergence; format: in vivo, Alopecurus myosuroides; conditions: scale 0 to 100
How it was run: as §1

[14] = system: bromegrass, downy; test: Test D postemergence; format: in vivo, Bromus tectorum; conditions: scale 0 to 100
How it was run: as §1

[15] = system: deadnettle; test: Test D postemergence; format: in vivo, Lamium amplexicaule; conditions: scale 0 to 100
How it was run: as §1

[16] = system: kochia; test: Test D postemergence; format: in vivo, Kochia scoparia; conditions: scale 0 to 100
How it was run: as §1

[17] = system: chamomile; test: Test D postemergence; format: in vivo, Matricaria inodora; conditions: scale 0 to 100
How it was run: as §1

[18] = system: speedwell; test: Test D postemergence; format: in vivo, Veronica persica; conditions: scale 0 to 100
How it was run: as §1

[19] = system: barley, spring; test: Test D postemergence; format: in vivo, Hordeum vulgare; conditions: scale 0 to 100
How it was run: as §1

[20] = system: barley, winter; test: Test D postemergence; format: in vivo, Hordeum vulgare; conditions: scale 0 to 100
How it was run: as §1

[21] = system: buckwheat, wild; test: Test D postemergence; format: in vivo, Polygonum convolvulus; conditions: scale 0 to 100
How it was run: as §1

## CCc1cc(C(=O)NCC(F)(F)F)nn1Cc1ccnc(SC(F)(F)F)c1 [Compound 214]
[1]; 31 g ai/ha
  Plant response rating, Bluegrass: 40
[1]; 62 g ai/ha
  Plant response rating, Bluegrass: 65
[1]; 125 g ai/ha
  Plant response rating, Bluegrass: 85
[1]; 250 g ai/ha
  Plant response rating, Bluegrass: 100
[2]; 31 g ai/ha
  Plant response rating, Chickweed: 90
[2]; 62 g ai/ha
  Plant response rating, Chickweed: 75
[2]; 125 g ai/ha
  Plant response rating, Chickweed: 100
[2]; 250 g ai/ha
  Plant response rating, Chickweed: 100
[3]; 62 g ai/ha
  Plant response rating, Galium: 85
[3]; 125 g ai/ha
  Plant response rating, Galium: 100
[3]; 250 g ai/ha
  Plant response rating, Galium: 100
[4]; 62 g ai/ha
  Plant response rating, Field Poppy: 100
[4]; 125 g ai/ha
  Plant response rating, Field Poppy: 100
[4]; 250 g ai/ha
  Plant response rating, Field Poppy: 100
[5]; 62 g ai/ha
  Plant response rating, Field Violet: 100
[5]; 125 g ai/ha
  Plant response rating, Field Violet: 100
[5]; 250 g ai/ha
  Plant response rating, Field Violet: 100
[6]; 62 g ai/ha
  Plant response rating, Kochia: 70
[6]; 125 g ai/ha
  Plant response rating, Kochia: 100
[6]; 250 g ai/ha
  Plant response rating, Kochia: 100
[7]; 62 g ai/ha
  Plant response rating, Oilseed Rape: 65
[7]; 125 g ai/ha
  Plant response rating, Oilseed Rape: 100
[7]; 250 g ai/ha
  Plant response rating, Oilseed Rape: 100
[8]; 31 g ai/ha
  Plant response rating, Chamomile: 50
[8]; 62 g ai/ha
  Plant response rating, Chamomile: 100
[8]; 125 g ai/ha
  Plant response rating, Chamomile: 100
[8]; 250 g ai/ha
  Plant response rating, Chamomile: 100
[9]; 62 g ai/ha
  Plant response rating, Speedwell: 100
[9]; 125 g ai/ha
  Plant response rating, Speedwell: 100
[9]; 250 g ai/ha
  Plant response rating, Speedwell: 100
[10]; 62 g ai/ha
  Plant response rating, Wheat, Spring: 10
[10]; 125 g ai/ha
  Plant response rating, Wheat, Spring: 40
[10]; 250 g ai/ha
  Plant response rating, Wheat, Spring: 75
[11]; 62 g ai/ha
  Plant response rating, Wheat, Winter: 15
[11]; 125 g ai/ha
  Plant response rating, Wheat, Winter: 55
[11]; 250 g ai/ha
  Plant response rating, Wheat, Winter: 75
[12]; 62 g ai/ha
  Plant response rating, Windgrass: 85
[12]; 125 g ai/ha
  Plant response rating, Windgrass: 90
[12]; 250 g ai/ha
  Plant response rating, Windgrass: 100
[13]; Postemergence, 31 g ai/ha
  Blackgrass plant response rating: 15
[13]; Postemergence, 125 g ai/ha
  Blackgrass plant response rating: 20
[13]; Postemergence, 250 g ai/ha
  Blackgrass plant response rating: 70
[13]; postemergence, 62 g ai/ha
  Blackgrass plant response rating: 15
[14]; Postemergence, 31 g ai/ha
  Bromegrass, Downy plant response rating: 15
[14]; Postemergence, 125 g ai/ha
  Bromegrass, Downy plant response rating: 20
[14]; Postemergence, 250 g ai/ha
  Bromegrass, Downy plant response rating: 20
[14]; postemergence, 62 g ai/ha
  Bromegrass, Downy plant response rating: 15
[15]; Postemergence, 31 g ai/ha
  Deadnettle plant response rating: 50
[15]; Postemergence, 125 g ai/ha
  Deadnettle plant response rating: 60
[15]; Postemergence, 250 g ai/ha
  Deadnettle plant response rating: 70
[15]; postemergence, 62 g ai/ha
  Deadnettle plant response rating: 50
[16]; Postemergence, 31 g ai/ha
  Kochia plant response rating: 70
[16]; Postemergence, 125 g ai/ha
  Kochia plant response rating: 80
[16]; Postemergence, 250 g ai/ha
  Kochia plant response rating: 85
[16]; postemergence, 62 g ai/ha
  Kochia plant response rating: 70
[17]; Postemergence, 31 g ai/ha
  Chamomile plant response rating: 40
[17]; Postemergence, 125 g ai/ha
  Chamomile plant response rating: 60
[17]; Postemergence, 250 g ai/ha
  Chamomile plant response rating: 70
[17]; postemergence, 62 g ai/ha
  Chamomile plant response rating: 40
[18]; Postemergence, 31 g ai/ha
  Speedwell plant response rating: 90
[18]; Postemergence, 125 g ai/ha
  Speedwell plant response rating: 95
[18]; Postemergence, 250 g ai/ha
  Speedwell plant response rating: 100
[18]; postemergence, 62 g ai/ha
  Speedwell plant response rating: 90
[19]; Postemergence, 31 g ai/ha
  Barley, Spring plant response rating: 15
[19]; Postemergence, 125 g ai/ha
  Barley, Spring plant response rating: 20
[19]; Postemergence, 250 g ai/ha
  Barley, Spring plant response rating: 40
[19]; postemergence, 62 g ai/ha
  Barley, Spring plant response rating: 15
[20]; Postemergence, 31 g ai/ha
  Barley, Winter plant response rating: 20
[20]; Postemergence, 125 g ai/ha
  Barley, Winter plant response rating: 30
[20]; Postemergence, 250 g ai/ha
  Barley, Winter plant response rating: 35
[20]; postemergence, 62 g ai/ha
  Barley, Winter plant response rating: 20
[21]; Postemergence, 31 g ai/ha
  Buckwheat, Wild plant response rating: 70
[21]; Postemergence, 125 g ai/ha
  Buckwheat, Wild plant response rating: 70
[21]; Postemergence, 250 g ai/ha
  Buckwheat, Wild plant response rating: 80
[21]; postemergence, 62 g ai/ha
  Buckwheat, Wild plant response rating: 70
